Laboratory results as given in US7626031B2, “Substituted 3-(diarylmethylene)indolin-2-ones and methods of their use” (Symphony Evolution, Inc., priority 2002, dated 2009).
pIC50: −log10 of the molar value.

Key:
Fyn = Fyn (Homo sapiens, UniProt P06241); experiment: Kinase assay, Fyn; type: biochemical
Procedure: (§1) Kinase activity and compound inhibition are investigated using one or more assay formats. The ATP concentrations for each assay are selected to be close to the Michaelis-Menten constant (KM) for each individual kinase. Dose-response experiments are performed at 10 different inhibitor concentrations in a 384-well plate format. […] Exemplary kinase assays are described below. KDR Assay

EphA2 = EphA2 (Homo sapiens, UniProt P29317); experiment: Kinase assay, EphA2 (33P-ATP incorporation or luciferase-coupled ATP consumption); type: biochemical
EphA2, sequence (P29317 24-976, species assumed): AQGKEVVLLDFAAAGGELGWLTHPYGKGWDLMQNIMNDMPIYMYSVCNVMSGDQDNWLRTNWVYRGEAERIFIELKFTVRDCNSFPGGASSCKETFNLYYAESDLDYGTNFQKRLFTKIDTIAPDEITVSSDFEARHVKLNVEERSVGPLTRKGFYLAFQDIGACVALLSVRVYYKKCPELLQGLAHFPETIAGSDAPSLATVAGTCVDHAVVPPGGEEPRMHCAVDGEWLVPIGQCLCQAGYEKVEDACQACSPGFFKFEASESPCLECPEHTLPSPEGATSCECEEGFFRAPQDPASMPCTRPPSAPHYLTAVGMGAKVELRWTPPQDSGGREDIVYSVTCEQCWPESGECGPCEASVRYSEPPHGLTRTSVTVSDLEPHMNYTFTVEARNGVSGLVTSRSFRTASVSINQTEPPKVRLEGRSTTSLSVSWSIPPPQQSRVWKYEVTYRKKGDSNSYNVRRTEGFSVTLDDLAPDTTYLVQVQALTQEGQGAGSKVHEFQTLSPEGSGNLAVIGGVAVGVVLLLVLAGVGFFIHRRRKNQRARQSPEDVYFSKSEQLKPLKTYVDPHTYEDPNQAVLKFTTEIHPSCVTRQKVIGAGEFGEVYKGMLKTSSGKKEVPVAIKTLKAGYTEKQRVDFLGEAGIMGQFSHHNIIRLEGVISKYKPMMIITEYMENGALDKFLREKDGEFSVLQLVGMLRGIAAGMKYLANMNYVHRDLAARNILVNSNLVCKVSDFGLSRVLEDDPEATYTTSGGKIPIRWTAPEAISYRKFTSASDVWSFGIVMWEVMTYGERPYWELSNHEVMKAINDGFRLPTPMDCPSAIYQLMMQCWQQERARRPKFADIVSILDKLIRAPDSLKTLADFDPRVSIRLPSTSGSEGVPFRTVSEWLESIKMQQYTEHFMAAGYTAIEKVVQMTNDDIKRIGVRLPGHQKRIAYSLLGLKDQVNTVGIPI
Procedure: (§2) Kinase assays were performed by measurement of incorporation of γ-^33P ATP into immobilized myelin basic protein (MBP). […] Plates were washed 3× with 100 μl TBS. […] Compound dilutions were performed in DMSO and added to assay wells to a final DMSO concentration of 1%. Each data point was measured in duplicate, and at least two duplicate assays were performed for each individual compound determination. Enzyme was added to final concentrations of 10 nM or 20 nM, for example. A mixture of unlabeled ATP and γ-^33P ATP was added to start the reaction (2×10^6 cpm of γ-^33P ATP per well (3000 Ci/mmole) and either 10 μM or 30 μM unlabeled ATP, typically. The reactions were carried out for 1 hour at room temperature with shaking. Plates were washed 7× with TBS, followed by the addition of 50 μl/well scintillation fluid (Wallac). Plates were read using a Wallac Trilux counter. This is only one format of such assays, various other formats are possible, as known to one of ordinary skill in the art.
(§3) Tyrosine kinase activity is determined by 1) measurement of kinase-dependent ATP consumption by in the presence of a generic substrate such as, polyglutamic acid, tyrosine, 4:1 (pEY), by luciferase/luciferin-mediated chemiluminescence or; 2) incorporation of radioactive phosphate derived from ^33P-ATP into a generic substrate which has been adsorbed onto the well surface of polystyrene microtiter plates. Phosphorylated substrate products are quantified by scintillation spectrometry.
as §1

EGFR = EGFR (Homo sapiens, UniProt P00533); experiment: Kinase assay, EGFR (33P-ATP incorporation or luciferase-coupled ATP consumption); type: biochemical
EGFR, sequence (P00533 25-1210, species assumed): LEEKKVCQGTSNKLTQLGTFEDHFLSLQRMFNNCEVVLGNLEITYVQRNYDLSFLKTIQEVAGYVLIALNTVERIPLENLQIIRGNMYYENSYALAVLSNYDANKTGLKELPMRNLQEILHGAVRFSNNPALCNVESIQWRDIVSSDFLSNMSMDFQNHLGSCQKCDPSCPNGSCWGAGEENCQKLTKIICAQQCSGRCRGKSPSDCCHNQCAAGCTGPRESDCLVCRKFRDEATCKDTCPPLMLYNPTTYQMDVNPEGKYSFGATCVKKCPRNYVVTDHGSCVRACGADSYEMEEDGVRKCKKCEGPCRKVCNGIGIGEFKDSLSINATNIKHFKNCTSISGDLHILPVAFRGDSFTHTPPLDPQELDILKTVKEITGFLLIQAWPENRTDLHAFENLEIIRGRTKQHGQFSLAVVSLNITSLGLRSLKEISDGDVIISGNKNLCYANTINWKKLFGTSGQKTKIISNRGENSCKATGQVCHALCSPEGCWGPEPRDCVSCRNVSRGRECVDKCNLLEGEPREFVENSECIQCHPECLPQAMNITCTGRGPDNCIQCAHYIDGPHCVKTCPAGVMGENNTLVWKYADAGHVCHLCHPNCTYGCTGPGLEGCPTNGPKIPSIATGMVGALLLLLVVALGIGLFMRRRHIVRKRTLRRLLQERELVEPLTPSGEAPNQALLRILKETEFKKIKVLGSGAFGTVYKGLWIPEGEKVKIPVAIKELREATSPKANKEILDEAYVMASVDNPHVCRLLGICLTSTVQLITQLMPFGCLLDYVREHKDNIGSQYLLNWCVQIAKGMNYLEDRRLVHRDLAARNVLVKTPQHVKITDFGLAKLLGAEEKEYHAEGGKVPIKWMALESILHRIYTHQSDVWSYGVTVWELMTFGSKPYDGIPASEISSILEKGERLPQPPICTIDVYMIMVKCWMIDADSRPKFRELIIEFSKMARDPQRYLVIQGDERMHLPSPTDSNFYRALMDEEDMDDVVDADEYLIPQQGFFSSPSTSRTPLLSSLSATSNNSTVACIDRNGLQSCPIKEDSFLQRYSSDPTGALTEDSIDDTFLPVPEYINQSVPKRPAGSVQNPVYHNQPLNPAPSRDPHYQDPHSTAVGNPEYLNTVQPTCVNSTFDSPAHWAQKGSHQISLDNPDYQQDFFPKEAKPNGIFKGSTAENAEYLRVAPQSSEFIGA
Procedure: as §2, §3, §1

[1] = biological target: T1, KDR (baculovirus expressed human KDR kinase domain D807-V1356) (Homo sapiens, UniProt P35968); experiment: biochemical
T1 construct: human KDR kinase domain D807-V1356; host or cells: baculovirus expression system
T1 sequence (P35968 807-1356): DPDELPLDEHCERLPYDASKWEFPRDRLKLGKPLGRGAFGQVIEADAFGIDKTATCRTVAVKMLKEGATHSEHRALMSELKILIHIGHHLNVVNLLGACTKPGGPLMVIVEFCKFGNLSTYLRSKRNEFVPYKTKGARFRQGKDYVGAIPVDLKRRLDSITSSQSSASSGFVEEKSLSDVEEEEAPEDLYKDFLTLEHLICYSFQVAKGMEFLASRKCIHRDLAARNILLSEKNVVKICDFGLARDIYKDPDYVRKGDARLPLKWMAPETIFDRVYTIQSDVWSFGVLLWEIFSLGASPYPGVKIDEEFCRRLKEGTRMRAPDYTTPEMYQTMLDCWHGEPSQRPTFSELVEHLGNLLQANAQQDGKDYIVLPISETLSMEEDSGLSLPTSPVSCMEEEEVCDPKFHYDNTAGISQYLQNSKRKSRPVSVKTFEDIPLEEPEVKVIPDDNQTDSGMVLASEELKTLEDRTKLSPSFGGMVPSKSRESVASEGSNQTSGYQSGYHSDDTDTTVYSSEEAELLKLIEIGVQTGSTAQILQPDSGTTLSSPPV
Procedure: as §1
KDR biochemical activity was assessed using a Luciferase-Coupled Chemiluminescent Kinase assay (LCCA) format. Kinase activity was measured as the percent ATP remaining following the kinase reaction. Remaining ATP was detected by luciferase-luciferin-coupled chemiluminescence. […] The mixture is incubated at ambient temperature for 4 hours after which 20 uL luciferase-luciferin mix is added and the chemiluminescent signal read using a Wallac Victor^2 reader.

IRK = IRK (Homo sapiens, UniProt P06213); experiment: Kinase assay, IRK; type: biochemical
Procedure: as §1

FGFR1 = FGFR1 (Homo sapiens, UniProt P11362); experiment: Kinase assay, FGFR1 (33P-ATP incorporation or luciferase-coupled ATP consumption); type: biochemical
FGFR1, sequence (P11362 22-822, species assumed): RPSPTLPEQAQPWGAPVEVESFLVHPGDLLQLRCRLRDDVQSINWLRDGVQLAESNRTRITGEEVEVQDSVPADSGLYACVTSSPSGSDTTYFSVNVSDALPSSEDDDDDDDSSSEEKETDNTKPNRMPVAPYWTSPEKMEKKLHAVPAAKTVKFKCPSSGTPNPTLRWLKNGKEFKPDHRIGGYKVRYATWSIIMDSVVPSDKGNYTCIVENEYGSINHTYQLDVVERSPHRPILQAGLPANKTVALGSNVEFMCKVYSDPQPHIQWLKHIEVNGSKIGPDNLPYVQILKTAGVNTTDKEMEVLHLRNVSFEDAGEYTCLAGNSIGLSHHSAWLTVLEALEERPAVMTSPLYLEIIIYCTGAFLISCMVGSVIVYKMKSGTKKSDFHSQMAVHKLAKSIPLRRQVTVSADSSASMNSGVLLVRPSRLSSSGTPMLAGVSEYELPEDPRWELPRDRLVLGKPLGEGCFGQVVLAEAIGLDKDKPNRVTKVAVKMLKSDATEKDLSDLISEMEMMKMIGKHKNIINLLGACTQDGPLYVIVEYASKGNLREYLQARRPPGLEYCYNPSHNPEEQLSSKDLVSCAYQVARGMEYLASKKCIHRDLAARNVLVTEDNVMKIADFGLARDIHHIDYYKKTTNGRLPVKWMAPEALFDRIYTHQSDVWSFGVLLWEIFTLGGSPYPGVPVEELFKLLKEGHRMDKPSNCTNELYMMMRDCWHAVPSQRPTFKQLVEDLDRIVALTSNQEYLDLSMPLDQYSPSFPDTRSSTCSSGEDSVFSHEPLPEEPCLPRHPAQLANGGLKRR
Procedure: as §2, §3, §1

PDGFR alpha = PDGFR alpha (Homo sapiens, UniProt P16234); experiment: Kinase assay, PDGFR alpha (33P-ATP incorporation or luciferase-coupled ATP consumption); type: biochemical; conditions: read-out: PDGF-R-A IC50
PDGFR alpha, sequence (P16234 24-1089): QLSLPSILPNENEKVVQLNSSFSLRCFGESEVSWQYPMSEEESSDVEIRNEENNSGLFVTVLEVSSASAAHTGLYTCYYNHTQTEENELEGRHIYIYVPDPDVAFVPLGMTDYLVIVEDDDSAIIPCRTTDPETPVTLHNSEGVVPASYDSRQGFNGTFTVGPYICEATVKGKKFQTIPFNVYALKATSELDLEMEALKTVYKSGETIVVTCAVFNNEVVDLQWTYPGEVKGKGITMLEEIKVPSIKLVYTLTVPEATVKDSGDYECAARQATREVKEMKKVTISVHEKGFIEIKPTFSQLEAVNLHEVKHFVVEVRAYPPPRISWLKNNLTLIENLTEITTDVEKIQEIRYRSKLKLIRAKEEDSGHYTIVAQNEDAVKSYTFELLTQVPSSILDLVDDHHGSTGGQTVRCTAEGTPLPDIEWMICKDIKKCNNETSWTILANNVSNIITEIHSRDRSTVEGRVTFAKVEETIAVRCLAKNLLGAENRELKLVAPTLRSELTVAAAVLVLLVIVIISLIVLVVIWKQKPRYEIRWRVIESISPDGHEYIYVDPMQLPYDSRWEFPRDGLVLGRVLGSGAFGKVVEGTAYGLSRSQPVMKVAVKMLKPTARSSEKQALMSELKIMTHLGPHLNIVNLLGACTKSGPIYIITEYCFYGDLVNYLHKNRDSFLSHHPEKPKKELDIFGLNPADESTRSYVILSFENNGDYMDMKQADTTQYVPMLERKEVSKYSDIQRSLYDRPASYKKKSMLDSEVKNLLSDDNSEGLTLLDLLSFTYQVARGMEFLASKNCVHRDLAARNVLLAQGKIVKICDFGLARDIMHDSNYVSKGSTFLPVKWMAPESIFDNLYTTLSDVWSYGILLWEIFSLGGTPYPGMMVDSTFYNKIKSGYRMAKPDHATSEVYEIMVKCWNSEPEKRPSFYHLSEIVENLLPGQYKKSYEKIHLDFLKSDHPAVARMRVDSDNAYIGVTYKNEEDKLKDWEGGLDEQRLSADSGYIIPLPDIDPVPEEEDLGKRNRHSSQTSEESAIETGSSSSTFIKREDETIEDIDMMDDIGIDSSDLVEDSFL
Procedure: as §2, §3, §1

Fyn, sequence (P06241 whole entry, species assumed): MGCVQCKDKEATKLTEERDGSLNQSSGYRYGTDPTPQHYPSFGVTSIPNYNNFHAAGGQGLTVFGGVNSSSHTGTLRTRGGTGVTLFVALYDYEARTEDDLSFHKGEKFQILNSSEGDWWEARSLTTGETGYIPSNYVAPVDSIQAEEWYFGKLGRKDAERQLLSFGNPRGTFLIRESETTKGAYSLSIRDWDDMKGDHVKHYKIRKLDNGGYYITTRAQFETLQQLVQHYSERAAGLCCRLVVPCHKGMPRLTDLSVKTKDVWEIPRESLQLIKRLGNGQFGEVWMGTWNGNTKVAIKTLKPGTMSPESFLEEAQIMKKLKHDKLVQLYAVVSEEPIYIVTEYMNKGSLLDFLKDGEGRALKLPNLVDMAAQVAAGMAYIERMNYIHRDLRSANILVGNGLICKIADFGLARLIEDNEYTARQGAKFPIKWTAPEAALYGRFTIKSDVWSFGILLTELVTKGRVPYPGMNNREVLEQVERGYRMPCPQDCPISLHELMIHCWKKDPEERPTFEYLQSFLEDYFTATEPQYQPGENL

Compound | pIC50 (Fyn) | pIC50 (EphA2) | pIC50 (EGFR) | pIC50 [1] | pIC50 (IRK) | pIC50 (FGFR1) | pIC50 (PDGFR alpha)
COCCN1CCC(Nc2ccc3c(c2)/C(=C(\c2ccc(C(F)(F)F)nc2)c2ncc[nH]2)C(=O)N3)CC1 [Entry 98] | 6.30 to 7.30 | 5.30 to 6.30 | < 5.30 | 6.30 to 7.30 | < 5.30 | 6.30 to 7.30 | –
CCN1CCC(Nc2ccc3c(c2)/C(=C(\c2ccc(C(F)(F)F)nc2)c2ncc[nH]2)C(=O)N3)CC1 [Entry 68] | 6.30 to 7.30 | 5.30 to 6.30 | < 5.30 | 6.30 to 7.30 | < 5.30 | 6.30 to 7.30 | > 7.30
COCCN1CCC(Nc2ccc3c(c2)/C(=C(\c2ccc(C(F)(F)F)cc2)c2ncc[nH]2)C(=O)N3)CC1 [Entry 71] | 6.30 to 7.30 | 5.30 to 6.30 | < 5.30 | > 7.30 | < 5.30 | > 7.30 | > 7.30
COCCN1CCC(Nc2ccc3c(c2)/C(=C(\c2cccc(F)c2)c2nc(-c4ccccc4)c[nH]2)C(=O)N3)CC1 [Entry 96, (3Z)-3-[(3-fluorophenyl)(4-phenyl-1H-imidazol-2-yl)methylidene]-5-({1-[2-(methyloxy)ethyl]piperidin-4-yl}amino)-1,3-dihydro-2H-indol-2-one] | > 7.30 | 5.30 to 6.30 | 6.30 to 7.30 | > 7.30 | 5.30 to 6.30 | > 7.30 | –
O=C1Nc2ccc(NC3CCN(CCN4CCCC4)CC3)cc2/C1=C(\c1cccc(F)c1)c1ncc[nH]1 [Entry 85, (3Z)-3-[(3-fluorophenyl)(1H-imidazol-2-yl)methylidene]-5-{[1-(2-pyrrolidin-1-ylethyl)piperidin-4-yl]amino}-1,3-dihydro-2H-indol-2-one] | 6.30 to 7.30 | 5.30 to 6.30 | < 5.30 | > 7.30 | < 5.30 | 6.30 to 7.30 | > 7.30
CCCc1ccc(/C(=C2/C(=O)Nc3ccc(NC4CCN(CCOC)CC4)cc32)c2ncc[nH]2)cc1 [Entry 94, (3Z)-3-[1H-imidazol-2-yl(4-propylphenyl)methylidene]-5-({1-[2-(methyloxy)ethyl]piperidin-4-yl}amino)-1,3-dihydro-2H-indol-2-one] | > 7.30 | 5.30 to 6.30 | 6.30 to 7.30 | > 7.30 | 5.30 to 6.30 | > 7.30 | –
COCCN1CCC(Nc2ccc3c(c2)/C(=C(\c2ccc(Cl)cc2)c2ncc[nH]2)C(=O)N3)CC1 [Entry 91, (3Z)-3-[(4-chlorophenyl)(1H-imidazol-2-yl)methylidene]-5-({1-[2-(methyloxy)ethyl]piperidin-4-yl}amino)-1,3-dihydro-2H-indol-2-one] | > 7.30 | 5.30 to 6.30 | < 5.30 | > 7.30 | 5.30 to 6.30 | > 7.30 | > 7.30
COCCN1CCC(Nc2ccc3c(c2)/C(=C(\c2ccccc2)c2ncc[nH]2)C(=O)N3)CC1 [Entry 89] | > 7.30 | 5.30 to 6.30 | < 5.30 | > 7.30 | 5.30 to 6.30 | > 7.30 | > 7.30
COCCN1CCC(Nc2ccc3c(c2)/C(=C(\c2ccc(OC)cc2)c2ncc[nH]2)C(=O)N3)CC1 [Entry 90] | > 7.30 | 5.30 to 6.30 | < 5.30 | > 7.30 | < 5.30 | 6.30 to 7.30 | > 7.30
CCN1CCC(Nc2ccc3c(c2)/C(=C(\c2cccc(F)c2)c2ncn[nH]2)C(=O)N3)CC1 [Entry 99, (3Z)-5-[(1-ethylpiperidin-4-yl)amino]-3-[(3-fluorophenyl)(1H-1,2,4-triazol-5-yl)methylidene]-1,3-dihydro-2H-indol-2-one] | < 5.30 | < 5.30 | < 5.30 | 6.30 to 7.30 | < 5.30 | 6.30 to 7.30 | –
COCCN1CCC(Nc2ccc3c(c2)/C(=C(\c2ccccc2)c2nc4cc(Cl)ccc4[nH]2)C(=O)N3)CC1 [Entry 72] | 6.30 to 7.30 | 5.30 to 6.30 | < 5.30 | > 7.30 | < 5.30 | > 7.30 | > 7.30
COCCN1CCC(Nc2ccc3c(c2)/C(=C(\c2cc(F)cc(F)c2)c2nc(C)c[nH]2)C(=O)N3)CC1 [Entry 76] | > 7.30 | 5.30 to 6.30 | 6.30 to 7.30 | > 7.30 | 5.30 to 6.30 | > 7.30 | > 7.30
COCCN1CCC(Nc2ccc3c(c2)/C(=C(\c2ccc(C)cc2)c2nc(C)c[nH]2)C(=O)N3)CC1 [Entry 77, (3Z)-3-[(4-methyl-1H-imidazol-2-yl)(4-methylphenyl)methylidene]-5-({1-[2-(methyloxy)ethyl]piperidin-4-yl}amino)-1,3-dihydro-2H-indol-2-one] | > 7.30 | 6.30 to 7.30 | 6.30 to 7.30 | > 7.30 | 5.30 to 6.30 | > 7.30 | > 7.30
CCN1CCCC(Nc2ccc3c(c2)/C(=C(\c2ccccc2)c2nc4cc(OC)ccc4[nH]2)C(=O)N3)C1 (stereo not shown) [Entry 2, (3Z)-5-[(1-ethylpiperidin-3-yl)amino]-3-[[5-(methyloxy)-1H-benzimidazol-2-yl](phenyl)methylidene]-1,3-dihydro-2H-indol-2-one] | 5.30 to 6.30 | 5.30 to 6.30 | 5.30 to 6.30 | – | – | – | –
CCN1CCC(Nc2ccc3c(c2)/C(=C(\c2cccc(F)c2)c2nc(-c4ccccc4)c[nH]2)C(=O)N3)CC1 [Entry 95, (3Z)-5-[(1-ethylpiperidin-4-yl)amino]-3-[(3-fluorophenyl)(4-phenyl-1H-imidazol-2-yl)methylidene]-1,3-dihydro-2H-indol-2-one] | > 7.30 | 5.30 to 6.30 | 6.30 to 7.30 | > 7.30 | 5.30 to 6.30 | > 7.30 | –
CCN1CCC(Oc2ccc3c(c2)/C(=C(\c2ccccc2)c2nc4cc(OC)ccc4[nH]2)C(=O)N3)CC1 [Entry 14, (3Z)-5-[(1-ethytpiperidin-4-yl)oxy]-3-[[5-(methyloxy)-1H-benzimidazol-2-yl](phenyl)methylidene]-1,3-dihydro-2H-indol-2-one] | > 7.30 | 5.30 to 6.30 | 5.30 to 6.30 | – | 5.30 to 6.30 | – | –
CCN1CCC(Nc2ccc3c(c2)/C(=C(\c2cc(F)cc(F)c2)c2nc4cc(Cl)ccc4[nH]2)C(=O)N3)CC1 [Entry 56, (3Z)-3-[(5-chloro-1H-benzimidazol-2-yl) (3,5-dilfuorophenyl)methylidene]-5-[(1-ethylpiperidin-4-yl)amino]-1,3-dihydro-2H-indol-2-one] | > 7.30 | 5.30 to 6.30 | – | > 7.30 | < 5.30 | 6.30 to 7.30 | > 7.30
CCN1CCC(Nc2ccc3c(c2)/C(=C(\c2ccccc2)c2nc4cc(Cl)ccc4[nH]2)C(=O)N3)CC1 [Entry 55, (3Z)-3-[(5-chloro-1H-benzimidazol-2-yl)(phenyl)methylidene]-5-[(1-ethylpiperidin-4-yl)amino]-1,3-dihydro-2H-indol-2-one] | > 7.30 | 5.30 to 6.30 | – | > 7.30 | 5.30 to 6.30 | 6.30 to 7.30 | > 7.30
CS(=O)(=O)N1CCC(Nc2ccc3c(c2)/C(=C(\c2cccc(F)c2)c2ncc[nH]2)C(=O)N3)CC1 [Entry 93, (3Z)-3-[(3-fluorophenyl)(1H-imidazol-2-yl)methylidene]-5-{[1-(methylsulfonyl)piperidin-4-yl]amino}-1,3-dihydro-2H-indol-2-one] | < 5.30 | < 5.30 | < 5.30 | 6.30 to 7.30 | 5.30 to 6.30 | 6.30 to 7.30 | –
CCN1CCC(Nc2ccc3c(c2)/C(=C(\c2ccc(F)c(C)c2)c2nc4ccccc4[nH]2)C(=O)N3)CC1 [Entry 52, (3Z)-3-[1H-benzimidazol-2-yl(4-fluoro-3-methylphenyl)methylidene]-5-{(1-ethylpiperidin-4-yl)amino]-1,3-dihydro-2H-indol-2-one] | > 7.30 | 5.30 to 6.30 | – | > 7.30 | 5.30 to 6.30 | 6.30 to 7.30 | > 7.30
